From ChEMBL document CHEMBL1152761, “Synthesis of novel substituted pyrazole-5-carbohydrazide hydrazone derivatives and discovery of a potent apoptosis inducer in A549 lung cancer cells” (Bioorg Med Chem, 2009)
Activity calls are given as the source filed them. The calls are words filed in the database; no cut-off is given here.

What was measured:
Type in all cases: functional, cell-based
[1] = test system: A549; assay: Growth inhibition of human A549 cells after 48 hrs by MTT assay; details: for IC50: A549, 48 h
[2] = test system: A549; assay: Induction of necrosis in human A549 cells assessed as LDH release at 1 uM after 24 to 48 hrs
[3] = test system: A549; assay: Induction of necrosis in human A549 cells assessed as LDH release at 0.1 uM after 24 to 48 hrs
[4] = test system: A549; assay: Induction of apoptosis in human A549 cells assessed as DNA fragmentation after 48 hrs by TUNEL assay
[5] = test system: A549; assay: Induction of apoptosis in human A549 cells assessed as cell shrinkage like morphological changes at 1 uM after 48 hrs by light microscopy
[6] = test system: A549; assay: Induction of necrosis in human A549 cells assessed as LDH release at 0.5 uM after 24 to 48 hrs
[7] = test system: A549; assay: Induction of apoptosis in human A549 cells assessed as DNA fragmentation after 48 hrs by acridine orange staining

Row | Structure (SMILES) | Activity [1] | IC50 [1] [µM] | other results
1 | COc1ccc(-c2cc(C(=O)N/N=C(\C)c3cc(C)ccc3O)n(Cc3ccc(C(C)(C)C)cc3)n2)cc1 | Dose-dependent effect | 10.4 | –
2 | COc1ccc(-c2cc(C(=O)N/N=C(\C)c3cc(Cl)cc(Cl)c3O)n(Cc3ccc(C(C)(C)C)cc3)n2)cc1 | Dose-dependent effect | 2.08 | –
3 | C/C(=N\NC(=O)c1cc(-c2ccc(Cl)cc2)nn1Cc1ccc(C(C)(C)C)cc1)c1cc(C)ccc1O | Dose-dependent effect | 2.49 | –
4 | C/C(=N\NC(=O)c1cc(-c2ccccc2)nn1Cc1ccc(C(C)(C)C)cc1)c1cc(Cl)cc(Cl)c1O | Dose-dependent effect | 3.17 | –
5 | COc1ccc(-c2cc(C(=O)N/N=C(\C)c3cc(Cl)ccc3O)n(Cc3ccc(C(C)(C)C)cc3)n2)cc1 | Dose-dependent effect | 9.62 | –
6 | C/C(=N\NC(=O)c1cc(-c2ccc(Cl)cc2)nn1Cc1ccc(C(C)(C)C)cc1)c1cc(Cl)ccc1O | Dose-dependent effect | 0.28 | Activity [2]: inactive; Activity [3]: inactive; Activity [4]: Active; Activity [5]: Active; Activity [6]: inactive; Activity [7]: Active
7 | C/C(=N\NC(=O)c1cc(-c2ccccc2)nn1Cc1ccc(C(C)(C)C)cc1)c1cc(C)ccc1O | Dose-dependent effect | 6.1 | –
8 | C/C(=N\NC(=O)c1cc(-c2ccccc2)nn1Cc1ccc(C(C)(C)C)cc1)c1cc(Cl)ccc1O | Dose-dependent effect | 2.77 | –
9 | C/C(=N\NC(=O)c1cc(-c2ccc(Cl)cc2)nn1Cc1ccc(C(C)(C)C)cc1)c1cc(Cl)cc(Cl)c1O | Dose-dependent effect | 7.9 | –
